Experimental data published in the supplement of paper PMC10949913.

How the values were obtained:
[1] = tested on: NCI-H295R; assay: area under concentration-response curve (viability) (AUC (a.u.)); higher = less active; conditions: 48 h
In short: (§1)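 Three adrenocortical carcinoma cell lines were exposed for 48 h to library compounds at 11 concentrations in 1,536-well plates, then read by CellTiter-Glo luminescence. Signals were scaled per plate against vehicle and empty-well controls. From fitted concentration-response curves of inhibitory or non-responding classes alone, AC50 and area under the curve were obtained.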

[2] = tested on: CU-ACC1; assay: as above; conditions: 48 h
In short: as §1

Compound	area under concentration-response curve [1]	area under concentration-response curve [2]
Cc1c(CCOc2ccc(C(=O)O)cc2)c2cc(Cl)ccc2n1C(c1ccccc1)c1ccccc1	600	536
COc1ccccc1C(=O)Nc1cc2c(cc1N1CCNC[C@H]1C)n(C)c(=O)n2C	550	479
Cn1cc(-c2ccc3c(c2)CCN3C(=O)Cc2cccc(C(F)(F)F)c2)c2c(N)ncnc21	577	523
C[C@H](NC(=O)Cc1cc(F)cc(F)c1)C(=O)N[C@@H]1C(=O)N(C)c2ccccc2-c2ccccc21	528	516
CNC(=O)c1cc(Oc2ccc(NC(=O)Nc3cc(C(C)(C)C)nn3-c3ccc4ncccc4c3)c(F)c2)ccn1	561	496
C=C1C[C@@]2(O)O[C@@]3(C[C@H]2C(C)C)[C@@H](C)CC[C@@H]13	541	487
COc1ccc(C2(C#N)CCC(C(=O)O)CC2)cc1OC1CCCC1 (centres undefined)	606	548
COc1cc2c(cc1OC)C1CC(=O)C(CC(C)C)CN1CC2 (centres undefined)	567	506
CC(C)CC(N(C)C)C1(c2ccc(Cl)cc2)CCC1 (centres undefined)	349	291
CN(C)CCN1C(=O)c2cccc3cc(NC(N)=O)cc(c23)C1=O	542	521
CCOC(=O)Nc1ccc(NCc2ccc(F)cc2)cc1N	578	543
CO[C@H]1CC[C@]2(CC1)CC3=C(C=C(C=C3)C4=CN=CC(=C4)C#CC)[C@@]2/5\N=C(C)/C(=N5)N	532	487
CCn1c(C(=O)N(C2CC2)C2CC2)cc2c3c(ncn3C)c(Nc3cc(C)n(C)n3)nc21	540	422
NC\1=N\C(=O)N(\C=C1F)[C@H]2C[C@H](O)[C@@H](CO)O2	416	334
CN1C(=O)N[C@H](Cc2c[nH]c3c(Cl)cccc23)C1=O	445	425
Cn1cnc2c1c(=O)[nH]c(=O)n2C	575	544
CC(=O)Oc1ccccc1C(=O)O	402	357
O=C1OC(COc2ccccc2[N+](=O)[O-])CC1Cc1ccccc1 (centres undefined)	521	412
CCC(C)N(C)C(=O)c1cc2ccccc2c(-c2ccccc2Cl)n1 (centres undefined)	337	492
O=C(NNc1ccccc1)c1ccncc1	527	483

Compound	area under concentration-response curve [1]	area under concentration-response curve [2]
CN(C[C@@H]1COCCO1)[S+]([O-])(=O)NC2=CC3=C(C=C2)\C=C/C4=C(C=C(C=N4)C5=C[N](C)N=C5)C3=O	578	547
Cc1ncc(OC[C@@]2(c3cccc(F)c3)C[C@H]2C(=O)Nc2ccc(F)cn2)c(C)n1	516	457
CC[C@@H]1[C@H](F)C(=O)N[C@@H]1COc1nccc2cc(C(N)=O)c(OC)cc12	532	472
CC1=CC=C(C=C1)N(C\C2=N\CCN2)C3=CC=CC(=C3)O	518	479
CC(C)Nc1cc(C(F)(F)F)cc2nc(NC(=O)c3cccnc3)nn12	412	373
c1ccc2c(Oc3nc(Nc4ccc(N5CCOCC5)cc4)c4ncn(C5CCCCC5)c4n3)cccc2c1	535	481
C[N]1N=CN=C1[C@@H]2[C@H](NC3=CC(=CC4=C3\C2=N/NC4=O)F)C5=CC=C(F)C=C5	415	405
CCC[S+](=O)([O-])Nc1ccc(F)c(C(=O)c2c[nH]c3ncc(Cl)cc23)c1F	493	475
CCCN1CCN(c2ccc(C(=O)NC3(C(=O)NCC#N)CCCCC3)cc2)CC1	299	375
Cn1c(CCCC(=O)O)nc2cc(N(CCCl)CCCl)ccc21	540	475
COc1ccc2nc3[nH]nc(C)c3c(NCCOCCO)c2c1	574	545
c1ccc(-c2oc3ncnc(NC[C@@H]4CCCO4)c3c2-c2ccccc2)cc1	572	517
OC[C@H]1O[C@H](C[C@@H]1O)[N]2C=NC3=C2\N=C/NC[C@H]3O	509	485
CCOC(=O)C1=CCCCC1[S+](=O)([O-])Nc1ccc(F)cc1Cl (centres undefined)	573	517
Cc1ccc(-c2ccc3c(ccc4sc5c(c43)NC[C@@H](C)NC5=O)n2)cn1	504	473
O=[S+]([O-])(F)Cc1ccccc1	517	510
C/N=c1\ncc2cc(-c3cc(N/C(O)=N/CCC(C)(C)C)c(F)cc3C)c(C)nc2[nH]1	474	454
NC(=O)c1nc(F)cnc1O	553	506
COc1cc(C(=O)O)ccc1NC(=O)[C@@H]1N[C@@H](CC(C)(C)C)[C@](C#N)(c2ccc(Cl)cc2F)[C@H]1c1cccc(Cl)c1F	540	469
C[C@@H]1CC(=O)Nc2cccc(-c3cnn(C(C)(C)C)c3)c2N1	570	551

Compound	area under concentration-response curve [1]	area under concentration-response curve [2]
CC1=NN(c2ccc(C)c(C)c2)C(=O)/C1=N/Nc1cccc(-c2cccc(C(=O)O)c2)c1O	500	437
CCCCCC[C@H]1C(=O)O[C@H](C)[C@H](NC(=O)c2cccc(NC=O)c2O)C(=O)O[C@@H](C)[C@@H]1OC(=O)CC(C)C	467	491
COC1=C(OC)C=C2C(=C1)C(=O)N(CCC[N]3C=CN=C3)\C4=C2\C(=O)C5=CC6=C(OCO6)C=C45	517	468
O=C/1NC(=O)C(=C1C2=CN=C3C=CC=C[N]23)/C4=C[N]5CCN(CC6=C5C4=CC=C6)C(=O)N7CCOCC7	526	514
COc1cc(N2CCN(C)CC2)ccc1Nc1ncc2c(n1)N(C)c1ccccc1C(=O)N2C	459	389
COC1=CC=C2C(=CC=NC2=C1)OC3=CC=C(NC(=O)\C4=C(C)\N(CC(C)(C)O)N(C4=O)C5=CC=CC=C5)C=C3F	459	398
CCN(C1CCOCC1)C2=C(C)C(=CC(=C2)C3=CC=C(CN4CCOCC4)C=C3)C(=O)NC\C5=C(C)\C=C(C)/NC5=O	249	262
CC#CC(=O)N1CCC[C@H]1c1nc(-c2ccc(C(=O)Nc3ccccn3)cc2)c2c(N)nccn12	509	474
Cc1ccccc1C(C(=O)NC1CCCCC1)N(C(=O)CNc1ccc(C#N)cc1)c1cccc(F)c1 (centres undefined)	507	485
CCOc1ccc(Cc2cc([C@@H]3O[C@H](CO)[C@@H](O)[C@H](O)[C@H]3O)ccc2Cl)cc1	494	464
CC1(C)CN(C(=O)c2ccc(-c3cccc4nc(NC(=O)C5CC5)nn34)cc2)C1	381	345
CNC(=O)c1ccc2c(c1)NC(=O)/C2=C(\Nc1cccc(CN(C)C)c1)c1ccccc1	441	323
CC(C)(S)[C@@H](N)C(=O)O	711	637
COC1=CC=CC(=C1/C2=N/CC3=C(N=C(NC4=CC(=C(C=C4)C(O)=O)OC)N=C3)C5=CC=C(Cl)C=C25)F	469	441
CONC(=O)Nc1ccc(-c2sc3c(c2CN(C)Cc2ccccc2)c(=O)n(-c2ccccc2)c(=O)n3Cc2c(F)cccc2F)cc1	556	531
CSC1=CC(=CC=C1)NC2=NC3=C(C=N2)/C=C(C(=O)N3C)/C4=C(Cl)C=CC=C4Cl	495	–
CN(C)CCNC(=O)COc1c2cccc1Cc1cccc(c1OCC(=O)NCCN(C)C)Cc1cccc(c1OCC(=O)NCCN(C)C)Cc1cccc(c1OCC(=O)NCCN(C)C)C2	485	–
C=CC(=O)N1CCC[C@@H](n2nc(-c3ccc(Oc4ccccc4)cc3)c3c(N)ncnc32)C1	459	–
N[S+](=O)([O-])c1ccc(Nc2nc(OCC3CCCCC3)c3[nH]cnc3n2)cc1	554	–
